Where two headings read alike, the source gives them in different places.

For experiment [1], the system named is Wnt activity (SW480 colon carcinoma cells stably expressing the Sp5-Luc reporter gene). Nature of the experiment: Wnt activity screening assay (Sp5-Luc reporter gene assay). It counts as cell-based, human. To be noted: Homo sapiens; for EC50: 36 to 48 hours; for inhibition at 10 µM: read-out: percent inhibition at 10 μM (given for EC50 >10 μM), 10 μM. From the text:
The screening assay for Wnt activity is described as follows. Reporter cell lines can be generated by stably transducing cancer cell lines (e.g., colon cancer) or primary cells (e.g., IEC-6 intestinal cells) with a lentiviral construct that includes a Wnt-responsive promoter driving expression of the firefly luciferase gene.
SW480 colon carcinoma cells were transduced with a lentiviral vector expressing luciferase with a human Sp5 promoter consisting of a sequence of eight TCF/LEF binding sites. SW480 cells stably expressing the Sp5-Luc reporter gene and a hygromycin resistance gene were selected by treatment with 150 μg/mL of hygromycin for 7 days. These stably transduced SW480 cells were expanded in cell culture and used for all further screening activities. […] For Sp5-Luc reporter gene assays, the cells were plated at 4,000 cells/well in 384-well plates with a DMEM medium containing 1% fetal bovine serum, and 1% Penicillin-Streptomycin and incubated for 36 to 48 hours at 37° C. and 5% CO2. Following incubation, 15 μl of BriteLite Plus luminescence reagent (Perkin Elmer) was added to each well of the 384-well assay plates. The plates were placed on an orbital shaker for 2 min and then luminescence was quantified using the Envision (Perkin Elmer) plate reader. Readings were normalized to DMSO only treated cells, and normalized activities were utilized for EC50 calculations using the dose-response log (inhibitor) vs. response-variable slope (four parameters) nonlinear regression feature available in GraphPad Prism 5.0 (or Dotmatics).
On the technique in general: In a reporter assay the amount or activity of a reporter protein is the signal.

In a further experiment the target is recombinant GSK3β kinase (Homo sapiens (Human), UniProt P49841). Nature of the experiment: GSK3β kinase assay (Ser/Thr 09 peptide Z-lyte, FRET).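 Also: FRET read-out as coumarin over fluorescein emission ratio, compounds incubated one hour at room temperature, IC50 from dose-response curve fit.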 It counts as biochemical.
The subject of experiment [2] is SW480 colon carcinoma cells. The experiment in a line: Cell viability assay (CellTiter-Glo). In kind it is cell-based, human. The conditions noted are these: Homo sapiens; for EC50: 96 h, four days, CellTiter-Glo. The procedure:
SW480 colon carcinoma cells were transduced with a lentiviral vector expressing luciferase with a human Sp5 promoter consisting of a sequence of eight TCF/LEF binding sites. SW480 cells stably expressing the Sp5-Luc reporter gene and a hygromycin resistance gene were selected by treatment with 150 μg/mL of hygromycin for 7 days. These stably transduced SW480 cells were expanded in cell culture and used for all further screening activities.
For the Cell Viability Assays, the cells were plated at 2,000 cells/well in 384-well plates with a DMEM medium containing 1% fetal bovine serum, and 1% Penicillin-Streptomycin and incubated for […] at 37° C. and 5% CO2. Eight replicates of DMSO-treated cells served as controls and cells treated with compound were performed in duplicate.
After incubation, 10 μL of CellTiter-Glo (Promega) was added to each well allowed to incubate for approximately 12 minutes. This reagent “results in cell lysis and generation of a luminescent signal proportional to the amount of ATP present. The amount of ATP is directly proportional to the number of cells present in culture, in agreement with previous reports. The CellTiter-Glo Assay generates a “glow-type” luminescent signal, produced by the luciferase reaction (Promega.com)”.
For orientation: ATP-based viability assays read luminescence as a measure of living cells.

Experiment [3] has as its system LL29 cells (primary human fibroblasts derived from IPF patients), α-smooth muscle actin. Nature of the experiment: Inhibition of fibrotic process: TGF-β1-treated primary human fibroblasts, αSMA staining.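 As to all read-outs here: controls were TGF-β1-stimulated wells with DMSO vehicle as the positive reference and cells given DMSO alone as the negative reference.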 It counts as cell-based. The conditions noted are these: Homo sapiens, Fibroblast; for EC50: 96 h, TGF-β1 20 ng/mL, 4 days, % cells positive for αSMA; for inhibition at 10 µM: read-out: percent inhibition at 10 μM (given for EC50 >10 μM), TGF-β1, αSMA, 10 μM.

Experiment [4] deals with IL-6 in human peripheral blood mononuclear cells (huPBMCs). Nature of the experiment: IL-6 inhibition in LPS-stimulated human peripheral blood mononuclear cells (HTRF). In kind it is cell-based. To be noted: Homo sapiens, PBMC; for EC50: LPS 50 ng/mL, 22 hours, IL-6 HTRF; for inhibition at 10 µM: read-out: percent inhibition at 10 μM (given for EC50 >10 μM), LPS, IL-6, 10 μM. The procedure:
Human Peripheral Blood Mononuclear Cells:
Fresh Normal PB MNC (Catalog # PB001, AllCells, Alameda, Calif.) were shipped overnight at 4° C. and resuspended in Roswell Park Memorial Institute (RPMI) 1640 Medium, with GlutaMAX Supplement (Catalog #61870127, ThermoFisher Scientific, Waltham, Mass.) supplemented with 1% Penicillin-Streptomycin (Catalog #15140163, ThermoFisher Scientific, Waltham, Mass.) and 1% fetal bovine serum (FBS) (Catalog #16140089, ThermoFisher Scientific, Waltham, Mass.) assay media.
Fresh normal human peripheral blood mononuclear cells (huPBMCs) were resuspended in 1% FBS-RPMI assay media with 1% Penicillin-Streptomycin 1% to a cell concentration of 1×10e6 cells/mL. […] 50 ng/mL of Lipopolysaccharides from Escherichia coli 0111:B4 (Catalog # L5293-2ML, Sigma-Aldrich, St. Louis, Mo.) was added after 2 hours and cells were incubated for another 22 hours at 37° C.-5% CO2. After 22 hour incubation, a mixture of anti-IL6 XL665 and anti-IL-6 Cryptate diluted in reconstitution buffer (Catalog #62IL6PEC, Cisbio Inc., Bedford, Mass.) was added to each well. Following incubation for 3 hours at room temperature, Homogeneous Time-Resolved Fluorescence (HTRF) was measured using the Envision (Perkin Elmer, Shelton, Conn.) at 665 nm and […]. The ratio of fluorescence at 665 nm to 620 nm was used as a readout for IL-6 quantification. All samples were processed in duplicate. Readings were normalized to DMSO treated cells and normalized activities were utilized for EC50 calculations. EC50 was determined using software generated by Dotmatics Limited (Windhill Bishops Stortford Herts, UK) using the Levenberg-Marquardt 4 parameter fitting procedure with finite different gradients.
On the technique in general: In TR-FRET formats the signal depends on donor and acceptor labels being close together.

Experiment [5] deals with recombinant DYRK1A kinase (Homo sapiens (Human), UniProt Q13627). The experiment in a line: DYRK1A kinase assay (Ser/Thr 18 peptide Z-lyte, FRET).
Method: Each compound was dissolved in DMSO as a 10 mM stock and used to prepare compound source plates.
This is a non-radioactive assay using fluorescence resonance energy transfer (FRET) between coumarin and fluorescein to detect kinase activity which is represented as a ratio of coumarin emission/fluorescein emission.
The mixture was allowed to incubate with the representative compounds for one hour at room temperature. All reactions were performed in duplicate. Unphosphorylated (“0% Control”) and phosphorylated (“100% control”) forms of Ser/Thr 18 served as control reactions. Additionally, an 11-point dose-response curve of Staurosporine (luM top) was run to serve as a positive compound control.
After incubation, Development Reagent A was diluted in Development Buffer then added to the reaction and allowed to further incubate for one hour at room temperature.
Dose-response curves were generated and inhibitory concentration (IC50) values were calculated using non-linear regression curve fit in the Dotmatics' Studies Software (Bishops Stortford, UK).
[6] abbreviates: GSK3β kinase, head says EC50, method says IC50, ATP 46 μM.
[7] abbreviates: DYRK1A kinase, head says EC50, method says IC50, ATP 30 μM.

recombinant GSK3β kinase, sequence (P49841 whole entry): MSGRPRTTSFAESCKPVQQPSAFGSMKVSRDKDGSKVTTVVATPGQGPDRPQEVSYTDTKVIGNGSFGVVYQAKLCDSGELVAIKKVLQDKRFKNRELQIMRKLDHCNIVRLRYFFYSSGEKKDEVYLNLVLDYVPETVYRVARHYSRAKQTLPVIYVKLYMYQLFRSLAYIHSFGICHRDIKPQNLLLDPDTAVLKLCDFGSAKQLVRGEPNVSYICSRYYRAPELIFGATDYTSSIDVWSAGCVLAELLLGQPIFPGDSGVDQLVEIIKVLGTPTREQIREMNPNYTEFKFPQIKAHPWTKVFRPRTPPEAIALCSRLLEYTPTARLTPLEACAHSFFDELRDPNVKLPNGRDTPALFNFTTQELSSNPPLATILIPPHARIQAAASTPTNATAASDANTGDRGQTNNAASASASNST

`O=C(Nc1cc2cc(-c3cncc(CN4CCCC4)c3)ccc2cn1)c1ccc(F)cc1` [Compound 52, 4-Fluoro-N-(6-(5-(pyrrolidin-1-ylmethyl)pyridin-3-yl)isoquinolin-3-yl) benzamide]: the half-maximal effective concentration (EC50) in experiment [1] is greater than 10 µM; on recombinant GSK3β kinase (setting [6]), greater than 10 µM; in experiment [2], 6.92 µM; in experiment [3], greater than 10 µM; in experiment [4], greater than 10 µM; in experiment [5] (setting [7]), 0.012 µM. Moreover, the inhibition at 10 µM in experiment [1] came to 17.7%; in experiment [3] it was 37.1%; in experiment [4], 17.6%.

Turning to `O=C(Nc1cc2cc(-c3cncc(CN4CCC(O)CC4)c3)ccc2cn1)c1ccc(F)cc1` [Compound 54, 4-Fluoro-N-(6-(5-((4-hydroxypiperidin-1-yl)methyl)pyridin-3-yl)isoquinolin-3-yl)benzamide], the EC50 in experiment [1] is 0.382 µM; on recombinant GSK3β kinase it was greater than 10 µM; in experiment [2], 0.647 µM; in experiment [3], greater than 10 µM; in experiment [4] it was greater than 10 µM; in experiment [5], 0.003 µM. The inhibition at 10 µM in experiment [3] was determined as 11.2%; in experiment [4] it was 17.9%.

In the case of `CNC(=O)c1cncc(-c2ccc3cnc(NC(=O)c4ccnc(N5CCN(C)CC5)c4)cc3c2)c1` [Compound 59, N-methyl-5-(3-(2-(4-methylpiperazin-1-yl)isonicotinamido)isoquinolin-6-yl)nicotinamide], the EC50 in experiment [1] is 0.866 µM; on recombinant GSK3β kinase (setting [6]), greater than 10 µM; in experiment [2] it was 2.32 µM; in experiment [3], 0.705 µM; in experiment [4], greater than 10 µM; in experiment [5] (setting [7]) it was 0.006 µM. For the same molecule, in experiment [4], the inhibition at 10 µM came out at 4.7%.

On to `Cc1ncc(-c2ccc3cnc(NC(=O)c4ccnc(N5CCN(C)CC5)c4)cc3c2)cn1` [Compound 64, 2-(4-Methylpiperazin-1-yl)-N-(6-(2-methylpyrimidin-5-yl)isoquinolin-3-yl)isonicotinamide], for which the EC50 is greater than 10 µM in experiment [1]; greater than 10 µM at recombinant GSK3β kinase (setting [6]); 8.02 µM in experiment [2]; 2 µM in experiment [3]; greater than 10 µM in experiment [4]; 0.158 µM in experiment [5] (setting [7]). The inhibition at 10 µM in experiment [1] worked out at 28.7%; in experiment [4], 5.7%.

On to `O=C(CN1CCCC1)Nc1cc2cc(-c3ccnnc3)ccc2cn1` [Compound 68, N-(6-(Pyridazin-4-yl)isoquinolin-3-yl)-2-(pyrrolidin-1-yl)acetamide], for which the EC50 in experiment [1] stood at 4.21 µM; on recombinant GSK3β kinase (setting [6]) it was 2.59 µM; in experiment [2], 7.91 µM; in experiment [3], 3.39 µM; in experiment [4] it was 8.77 µM; in experiment [5] (setting [7]), 0.328 µM.

Turning to `CN1CCC(F)(C(=O)Nc2cc3cc(-c4cnccn4)ccc3cn2)CC1` [Compound 76, 4-Fluoro-1-methyl-N-(6-(pyrazin-2-yl)isoquinolin-3-yl)piperidine-4-carboxamide], the half-maximal effective concentration (EC50) is greater than 10 µM in experiment [1]; greater than 10 µM on recombinant GSK3β kinase (setting [6]); greater than 10 µM in experiment [2]; greater than 10 µM in experiment [3]; greater than 10 µM in experiment [4]; 0.258 µM in experiment [5] (setting [7]). The inhibition at 10 µM in experiment [1] came to 15.7%; in experiment [2] (read-out: percent inhibition at 10 μM (given for EC50 >10 μM), 10 μM), 17.5%; in experiment [3], 13.1%; in experiment [4], 1.6%.

Take `CN1CCN(c2cc(C(=O)Nc3cc4cc(-c5cnccn5)ccc4cn3)ccn2)CC1` [Compound 84, 2-(4-Methylpiperazin-1-yl)-N-(6-(pyrazin-2-yl)isoquinolin-3-yl)isonicotinamide]: the concentration for a half-maximal effect (EC50) in experiment [1] was 5.83 µM; on recombinant GSK3β kinase (setting [6]), greater than 10 µM; in experiment [2], 8.38 µM; in experiment [3], greater than 10 µM; in experiment [4] it was greater than 10 µM; in experiment [5] (setting [7]), 0.096 µM. The inhibition at 10 µM in experiment [3] is 35.4%; in experiment [4] it was 5.7%.

As to `CNc1cncc(-c2ccc3cnc(NC(=O)c4ccnc(N5CCN(C)CC5)c4)cc3c2)n1` [Compound 85, N-(6-(6-(Methylamino)pyrazin-2-yl)isoquinolin-3-yl)-2-(4-methylpiperazin-1-yl)isonicotinamide], the EC50 in experiment [1] was 0.757 µM; on recombinant GSK3β kinase (setting [6]), greater than 10 µM; in experiment [2], 2.46 µM; in experiment [3], 1.85 µM; in experiment [4] it was 6.71 µM; in experiment [5] (setting [7]) it was 0.002 µM.

Regarding `CC(C)Nc1cncc(-c2ccc3cnc(NC(=O)C4CNC4)cc3c2)n1` [Compound 86, N-(6-(6-(Isopropylamino)pyrazin-2-yl)isoquinolin-3-yl)azetidine-3-carboxamide], the EC50 turned out to be 1.62 µM in experiment [1]; 0.017 µM on recombinant GSK3β kinase; 3.42 µM in experiment [2]; 0.204 µM in experiment [3]; 1.13 µM in experiment [4]; 0.001 µM in experiment [5].

With `CC(C)Nc1cncc(-c2ccc3cnc(NC(=O)C4CCNCC4)cc3c2)n1` [Compound 87, N-(6-(6-(Isopropylamino)pyrazin-2-yl)isoquinolin-3-yl)piperidine-4-carboxamide], the EC50 in experiment [1] was 0.201 µM; at recombinant GSK3β kinase (setting [6]), 0.038 µM; in experiment [2], 0.758 µM; in experiment [3] it was 1.92 µM; in experiment [4], 0.377 µM; in experiment [5] (setting [7]) it was 0.001 µM.

Take `CC(C)Nc1cncc(-c2ccc3cnc(NC(=O)C4CCN(C(C)C)CC4)cc3c2)n1` [Compound 90, 1-isopropyl-N-(6-(6-(isopropylamino)pyrazin-2-yl)isoquinolin-3-yl)piperidine-4-carboxamide]: the 50% effective concentration (EC50) was 0.139 µM in experiment [1]; 0.01 µM on recombinant GSK3β kinase (setting [6]); 0.465 µM in experiment [2]; 0.037 µM in experiment [3]; 0.463 µM in experiment [4]; 0.001 µM in experiment [5] (setting [7]).

As for `CC(C)Nc1cncc(-c2ccc3cnc(NC(=O)c4cccc(C5CCNCC5)c4)cc3c2)n1` [Compound 92, N-(6-(6-(Isopropylamino)pyrazin-2-yl)isoquinolin-3-yl)-3-(piperidin-4-yl) benzamide], the EC50 in experiment [1] was determined as 0.142 µM; on recombinant GSK3β kinase (setting [6]), 3.37 µM; in experiment [2], 0.235 µM; in experiment [3] it was 3.22 µM; in experiment [4] it was 0.374 µM; in experiment [5] (setting [7]) it was 0.009 µM.

For orientation: EC50 means the concentration that produces a half-maximal response. A word on the inhibition: it is the change of the read-out against control, counted positive when it falls.

These data come from patent publication US10653688B2, “6-(6-membered heteroaryl and aryl)isoquinolin-3-yl carboxamides and preparation and use thereof” (Samumed, LLC, priority 2017, dated 2020).
